Source: patent publication US20260240842A1, “METHODS TO PREVENT THERAPY RESISTANCE IN MELANOMA VIA BLOCKING GENOMIC INSTABILITY” (THE REGENTS OF THE UNIVERSITY OF CALIFORNIA, priority 2022, published 2026)

System: acquired MAPKi-resistant sub-lines (n=9) isogenic to the human BRAF^V600MUT and NRAS^Q61MUT parental cell lines
Test: Long-term clonogenic growth of acquired MAPKi-resistant sub-lines
Type: cell-based
Conditions: in combination with MAPKi, lower range of the concentrations tested
Procedure: FIGS. 4A-4U. DNA-PKi and/or PARPi co-treatment prevents acquired MAPKi-resistance in human melanoma cell lines. FIGS. 4A to 4O: Long-term clonogenic growth of isogenic parental and acquired MAPKi-resistant BRAF^V600MUT (4A to 4H) or NRAS^Q61MUT (4I to 4O) human melanoma cell lines showing acquired-resistant colonies to BRAFi+MEKi (PLX4032 at 0.5 mM, AZD6244 at 0.5 mM in 4A and 4G; PLX4032 at 0.25 mM, AZD6244 at 0.25 mM in 4D; PLX4032 at 1 mM, AZD6244 at 1 mM in 4B, 4C, 4E, 4F and 4H) or MEKi (trametinib at 0.005 mM in I and 0.01 mM in 4J and 4N; trametinib at 0.1 mM in 4K, 4M and 4O) and their suppression by indicated co-treatments with DNA-PKi (NU7026) and/or PARPi (ABT888) at indicated concentrations. Top, representative cultures; bottom, quantifications over n=4 fields (mean±SD). Data representative of 2 to 4 independent repeats. […] Representative results of two independent experiments; quantification of n=4 fields (mean±SD). […] Left, representative cultures; right, quantifications over n=4 fields (mean±SD). […] Top, representative cultures; bottom, quantifications over n=4 fields (mean±SD). […]

In the case of `O=c1cc(N2CCOCC2)oc2c1ccc1ccccc12` [NU7026], the “anti-clonogenic activity in acquired MAPKi-resistant sub-lines compared to isogenic parental lines” value is reported as “no or reduced anti-clonogenic activity”.

In the case of `C[C@]1(c2nc3c(C(N)=O)cccc3[nH]2)CCCN1` [ABT888, veliparib], the “anti-clonogenic activity in acquired MAPKi-resistant sub-lines compared to isogenic parental lines” value is reported as “no or reduced anti-clonogenic activity”.
